Assay results taken from US20050048105A1, “Protease inhibitor compositions for prevention and treatment of skin conditions” (priority 2003, published 2005).
Like-named read-outs stand apart in the source and are kept apart here.

Assays:
protease = assay: Protease inhibition activity of inhibitor solutions and lotions, fresh and after storage; type: biochemical; details: for initial protease inhibition activity: freshly prepared preparation; for decrease of inhibitory activity after storage of solution: one month at room temperature, vs fresh solution
Experimental: (§1) The inventor selected glycine soja and DPHP by testing numerous potential inhibitors in vitro to assess their activity against protease enzymes. A protease enzyme present in feces or urine, such as trypsin, chymotrypsin, or elastase, was placed in contact with a substrate (crosslinked albumin, sulfaniloazo-albumin and gelatin). Separately, the protease (trypsin, chymotrypsin or elastase) was incubated with a protease inhibitor and then this combination was placed in contact with the substrate. The substrate-protease or substrate-protease-protease inhibitor combination was then left to incubate.
(§2) At a defined time, the incubation was stopped by the addition of NaOH. Color was developed and read at OD 450. The intensity of the color developed was directly proportional to the amount of substrate digested by the protease.
Using the above methods, two protease inhibitors mentioned by the prior art were tested. […] However, they were left for one month and then tested for activity. After one month at room temperature, the activity of the stabilized AEBSF solution was decreased by 42%.

elastase [1] = details: studies by the manufacturer (Seppic); cited from earlier work
trypsin = biological target: T1, trypsin (Bos taurus, UniProt P00760); assay: Back digest of albumin/gelatin dye substrate by trypsin (FIGS. 2 and 4); type: biochemical
T1 construct: gene PRSS1
T1 sequence (P00760 24-246): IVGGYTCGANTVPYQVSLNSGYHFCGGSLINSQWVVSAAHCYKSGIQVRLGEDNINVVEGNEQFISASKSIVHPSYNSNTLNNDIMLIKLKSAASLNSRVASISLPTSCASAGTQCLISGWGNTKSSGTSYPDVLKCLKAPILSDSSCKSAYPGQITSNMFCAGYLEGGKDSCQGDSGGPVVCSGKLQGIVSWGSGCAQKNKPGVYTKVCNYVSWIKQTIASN
Experimental: as §1, §2
A back digest was performed with a spectrally active protease substrate, trypsin, and either DPHP or glycine soja. Trypsin was incubated with either DPHP or glycine soja, and for the control, neither DPHP nor glycine soja was used. The trypsin or trypsin+either DPHP or glycine soja was then placed in contact with a substrate, the results of which are shown in FIGS. 3 and 4.
(§3) The substrate used was a crosslinked albumin, sulfaniloazo-albumin and gelatin at a slightly acidic pH. […] This color development can be measured spectrophotometrically at OD 450 and the OD value is proportional to enzymatic activity. […] The OD 450 reading is directly proportional to the enzyme activity (i.e. the higher the value, the higher the enzyme activity).
(§4) A back digest was conducted when particulate suspensions were used as either enzyme or enzyme inhibitor or when lotions were being tested, because the particulate interferes with the OD readings. […] Color development was read at OD 450. […]
After an initial digest, the supernatant was decanted, and an excess of trypsin was added for further digestion of the substrate. After this final digest, supernatant optical density (OD) was read at 450 nm. […]

chymotrypsin = chymotrypsin (Bos taurus, UniProt P00766); assay: In vitro protease substrate digest with chymotrypsin; type: biochemical
Experimental: as §1, §2

elastase [2] = assay: Back digest of albumin/gelatin dye substrate by elastase (FIG. 4); type: biochemical
Experimental: as §1
At a defined time, the incubation was stopped by the addition of NaOH. Color was developed and read at OD 450. […]
as §3, §4

[3] = shown by the manufacturer; cited from earlier work
[4] = DPHP material itself, back digest, FIG. 4
[5] = listed as dipalmitoyl hydroxyproline

Row | SMILES | initial protease inhibition activity (protease) | decrease of inhibitory activity after storage of solution (protease) | inhibition of elastase (manufacturer) (elastase [1]) | inhibition of trypsin (in words) (trypsin) | change in trypsin activity (trypsin; [4]) | inhibition of trypsin (in words) (trypsin; [5]) | inhibition of chymotrypsin (in words) (chymotrypsin) | inhibition of chymotrypsin (in words) (chymotrypsin; [5]) | inhibition of elastase (in words) (elastase [2]) | change in elastase activity (elastase [2]; [4]) | inhibition of free radicals (manufacturer) [3]
1 | Cl.NCCc1ccc(S(=O)(=O)F)cc1 [AEBSF, 4-(2-aminoethyl)-benzenesulfonylfluoride hydrochloride] | very high protease inhibition activity | 42% |  |  |  |  |  |  |  |  | 
2 | CCCCCCCCCCCCCCCC(=O)O[C@@H]1C[C@@H](C(=O)O)N(C(=O)CCCCCCCCCCCCCCC)C1 [DPHP, dipalmitoyl hydroxyproline] |  |  | potent inhibitor of elastase | does inhibit | −33% | potent inhibitors | does inhibit | potent inhibitors | does inhibit | −22% | potent inhibitor of free radicals
3 | N=C(N)c1ccc(OCCCCCCOc2ccc(C(=N)N)cc2)cc1.O=S(=O)(O)CCO.O=S(=O)(O)CCO [Elestab, hexamidine diisethionate] | very high protease inhibition activity | about 37% |  |  |  |  |  |  |  |  | 
